# From BindingDB's records for patent US11884682 (Nanjing Immunophage Biotech Co., 2024)
# Target: T1, Macrophage migration inhibitory factor (Homo sapiens, UniProt P14174)
# T1 sequence (P14174 whole entry): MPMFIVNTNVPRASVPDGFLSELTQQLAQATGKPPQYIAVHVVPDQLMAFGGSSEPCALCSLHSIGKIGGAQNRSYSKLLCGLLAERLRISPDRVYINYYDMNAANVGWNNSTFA
# Assay: MIF Enzymatic Assay
# Procedure: Assays were performed in small-volume clear-bottom black 96 or 384-well polystyrene plates (Greiner Bio-One). First, 2 μL of the enzyme solution containing 6 nM of MIF in DPBS, 0.025% w/v BSA, and 300 μM CHAPS was dispensed onto sample and negative control wells using Multidrop Combi with metallic tip cassettes (Thermo Fisher Scientific) previously treated with Sigmacote. Then, 2 μL of the same buffer without MIF was dispensed onto positive control wells. […] In order to remove bubbles, the plate was centrifuged in an Allegra 25R centrifuge (Beckman Coulter, Inc., Brea, CA) at 1000 rpm for 2 min at room temperature. Then, the plate was read in an EnVision. Final concentrations of enzyme and substrate were 3 nM and 1.5 mM, respectively. Initial rates were calculated for each well as the slope of the absorbance progress curve.
row,IC50 [nM],SMILES
1,575,"COc1cc(N2CCC(O)C2)ccc1C(=O)NCc1nnc(-c2cccs2)o1 (stereo not drawn) [US11884682, Compound 78]"
2,708,"COc1cc(NCCO)ccc1C(=O)NCc1nnc(-c2cccs2)o1 [US11884682, Compound 79]"
3,2510,"COc1cc(OC2CCNC2)ccc1C(=O)NCc1nnc(-c2cccs2)o1 (stereo not drawn) [US11884682, Compound 81]"
